Legend:
Cbl-b [1] = target: T1, Cbl-b (Homo sapiens, UniProt Q13191); assay: Cbl-b Degradation Method A (FACS, anti-Cbl-b antibody staining); type: cell-based; details: Cbl-b-HiBit KI Jurkat Cells, incubated at least 20 hours; for DC50: half maximal degradation, read-out: Cbl-b Degredation Method A IC50; for Dmax: Jurkat, maximum degradation observed, read-out: Cbl-b Degredation Method A Dmax (%)
T1 construct: Cbl-b-HiBit KI Jurkat Cells were purchased from Promega; host or cells: Cbl-b-HiBiT knock-in Jurkat cells
T1 sequence (Q13191 whole entry): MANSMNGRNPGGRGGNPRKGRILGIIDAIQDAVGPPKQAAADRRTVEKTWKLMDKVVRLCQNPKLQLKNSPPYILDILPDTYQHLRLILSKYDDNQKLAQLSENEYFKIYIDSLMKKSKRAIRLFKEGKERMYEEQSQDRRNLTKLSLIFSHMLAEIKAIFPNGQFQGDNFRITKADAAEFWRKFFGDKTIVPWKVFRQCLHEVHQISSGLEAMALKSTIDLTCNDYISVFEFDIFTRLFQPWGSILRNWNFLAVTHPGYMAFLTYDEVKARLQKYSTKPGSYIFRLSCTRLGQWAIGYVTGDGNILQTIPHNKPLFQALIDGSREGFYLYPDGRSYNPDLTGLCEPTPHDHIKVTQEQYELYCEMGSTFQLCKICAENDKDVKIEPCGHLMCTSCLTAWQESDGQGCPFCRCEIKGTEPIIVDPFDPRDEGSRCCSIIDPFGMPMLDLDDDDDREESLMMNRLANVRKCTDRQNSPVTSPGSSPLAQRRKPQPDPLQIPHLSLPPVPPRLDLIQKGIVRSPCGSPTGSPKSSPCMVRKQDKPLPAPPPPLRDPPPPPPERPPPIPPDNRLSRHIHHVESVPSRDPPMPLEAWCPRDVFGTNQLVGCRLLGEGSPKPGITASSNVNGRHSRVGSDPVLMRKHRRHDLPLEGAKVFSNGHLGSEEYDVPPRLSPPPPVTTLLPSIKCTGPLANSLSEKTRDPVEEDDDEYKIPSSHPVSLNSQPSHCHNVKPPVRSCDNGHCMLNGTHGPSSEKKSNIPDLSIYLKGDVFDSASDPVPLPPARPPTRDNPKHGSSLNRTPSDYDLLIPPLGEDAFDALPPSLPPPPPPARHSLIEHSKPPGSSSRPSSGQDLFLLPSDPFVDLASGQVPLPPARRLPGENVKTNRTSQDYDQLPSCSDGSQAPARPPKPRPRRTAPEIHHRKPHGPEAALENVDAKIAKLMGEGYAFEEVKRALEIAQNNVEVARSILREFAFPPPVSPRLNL
In short: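 Cbl-b-HiBit KI Jurkat cells treated with compound for at least 20 h at 37 °C, then fixed, permeabilized and stained with anti-Cbl-b antibody plus anti-rabbit AF488 secondary. Cbl-b levels read by FACS; DC50 and Dmax (percent of control) derived.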

Cbl-b [2] = target: T1, Cbl-b; assay: Cbl-b Degradation Method B (Nano-Glo HiBiT lytic detection); type: cell-based; details: Cbl-b-HiBit KI Jurkat Cells, incubated at least 6-24 hours; for DC50: half maximal degradation, read-out: Cbl-b Degredation Method B IC50; for Dmax: read-out: Cbl-b Degredation Method B Dmax (%)
In short: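 Cbl-b-HiBiT knock-in Jurkat cells (20,000/well) were treated after ~24 h plating with an 11-point 1:3 series for 6-24 h at 37° C. Remaining Cbl-b measured by Nano-Glo HiBiT lytic luminescence. DC50 and Dmax expressed as % of control.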

| SMILES | DC50 (Cbl-b [1]) | Dmax (Cbl-b [1]) | DC50 (Cbl-b [2]) | Dmax (Cbl-b [2]; maximum degradation observed) | Cbl-b Degredation Method B Dmax (%) (Cbl-b [2]; maximum degradation observed) |
| --- | --- | --- | --- | --- | --- |
| Cn1cnnc1C[C@]1(c2cccc(N3Cc4c(cc(N5CC6(CCN(CC7CCN(c8ccc9c(c8Cl)CN(C8CCC(=O)NC8=O)C9=O)CC7)CC6)C5)cc4C(F)(F)F)C3=O)c2)C[C@H](C#N)C1 (stereo partly drawn) [Example 173, (1r,3r)-3-(3-{6-[7-({1-[4-chloro-2-(2,6-dioxopiperidin-3-yl)-1-oxo-2,3-dihydro-1H-isoindol-5-yl]piperidin-4-yl}methyl)-2,7-diazaspiro[3.5]nonan-2-yl]-1-oxo-4-(trifluoromethyl)-2,3-dihydro-1H-isoindol-2-yl}phenyl)-3-[(4-methyl-4H-1,2,4-triazol-3-yl)methyl]cyclobutane-1-carbonitrile] | 5 to 50 nM | > 70% | < 5 nM | 35 to 70% | – |
| Cc1cc(N2CCC(O[C@H]3CC[C@H](CN4CCC5(CCN(c6cc7c(c(C(F)(F)F)c6)CN(c6cccc([C@]8(Cc9nncn9C)C[C@@H](C#N)C8)c6)C7=O)C5)C4)CC3)CC2)c(F)c2c1C(=O)N(C1CCC(=O)NC1=O)C2 (stereo partly drawn) [Example 188, (1r,3r)-3-[(4-methyl-4H-1,2,4-triazol-3-yl)methyl]-3-{3-[1-oxo-6-(7-{[(1r,4r)-4-({1-[2-(2,6-dioxopiperidin-3-yl)-4-fluoro-7-methyl-1-oxo-2,3-dihydro-1H-isoindol-5-yl]piperidin-4-yl}oxy)cyclohexyl]methyl}-2,7-diazaspiro[4.4]nonan-2-yl)-4-(trifluoromethyl)-2,3-dihydro-1H-isoindol-2-yl]phenyl}cyclobutane-1-carbonitrile] | – | 35 to 70% | < 5 nM | 35 to 70% | – |
| Cn1cnnc1CC1(c2cccc(N3Cc4c(cc(CN5CCC(CC6CN(c7cccc8c7C(=O)N(C7CCC(=O)NC7=O)C8=O)C6)CC5)cc4C(F)(F)F)C3=O)c2)COC1 (stereo not drawn) [Example 99, 2-(2,6-dioxopiperidin-3-yl)-4-{3-[(1-{[2-(3-{3-[(4-methyl-4H-1,2,4-triazol-3-yl)methyl]oxetan-3-yl}phenyl)-3-oxo-7-(trifluoromethyl)-2,3-dihydro-1H-isoindol-5-yl]methyl}piperidin-4-yl)methyl]azetidin-1-yl}-2,3-dihydro-1H-isoindole-1,3-dione] | > 500 nM | – | > 500 nM | – | – |
| Cn1cnnc1CC1(c2cccc(N3Cc4c(cc(CN5CCC(N6CCC7(CCN(c8ccc9c(c8)C(=O)N(C8CCC(=O)NC8=O)C9=O)CC7)CC6)CC5)cc4C(F)(F)F)C3=O)c2)COC1 (stereo not drawn) [Example 100, 2-(2,6-dioxopiperidin-3-yl)-5-[9-(1-{[2-(3-{3-[(4-methyl-4H-1,2,4-triazol-3-yl)methyl]oxetan-3-yl}phenyl)-3-oxo-7-(trifluoromethyl)-2,3-dihydro-1H-isoindol-5-yl]methyl}piperidin-4-yl)-3,9-diazaspiro[5.5]undecan-3-yl]-2,3-dihydro-1H-isoindole-1,3-dione] | > 500 nM | < 35% | > 500 nM | – | – |
| Cn1cnnc1CC1(c2cccc(N3Cc4c(cc(CN5CCC[C@H](CN6CCC(CN7CCC(CN8CCN(c9ccc%10c(c9)C(=O)N(C9CCC(=O)NC9=O)C%10=O)CC8)CC7)CC6)C5)cc4C(F)(F)F)C3=O)c2)COC1 (stereo partly drawn) [Example 97, 2-(2,6-dioxopiperidin-3-yl)-5-[4-({1-[(1-{[(3R)-1-{[2-(3-{3-[(4-methyl-4H-1,2,4-triazol-3-yl)methyl]oxetan-3-yl}phenyl)-3-oxo-7-(trifluoromethyl)-2,3-dihydro-1H-isoindol-5-yl]methyl}piperidin-3-yl]methyl}piperidin-4-yl)methyl]piperidin-4-yl}methyl)piperazin-1-yl]-2,3-dihydro-1H-isoindole-1,3-dione] | 5 to 50 nM | > 70% | < 5 nM | 35 to 70% | – |
| Cn1cnnc1CC1(c2cccc(N3Cc4c(cc(CN5CCC(CC6CN(c7ccc8c(c7)C(=O)N(C7CCC(=O)NC7=O)C8=O)C6)CC5)cc4C(F)(F)F)C3=O)c2)COC1 (stereo not drawn) [Example 79, 2-(2,6-dioxopiperidin-3-yl)-5-{3-[(1-{[2-(3-{3-[(4-methyl-4H-1,2,4-triazol-3-yl)methyl]oxetan-3-yl}phenyl)-3-oxo-7-(trifluoromethyl)-2,3-dihydro-1H-isoindol-5-yl]methyl}piperidin-4-yl)methyl]azetidin-1-yl}-2,3-dihydro-1H-isoindole-1,3-dione] | > 500 nM | – | > 500 nM | – | – |

The next lines start with the values.

| DC50 (Cbl-b [1]) | Dmax (Cbl-b [1]) | DC50 (Cbl-b [2]) | Dmax (Cbl-b [2]; maximum degradation observed) | Cbl-b Degredation Method B Dmax (%) (Cbl-b [2]; maximum degradation observed) | SMILES |
| --- | --- | --- | --- | --- | --- |
| 5 to 50 nM | 35 to 70% | < 5 nM | – | C (C ≤ 35) | CC(C)n1c(=O)n(C2CCC(=O)NC2=O)c2cccc(N3CCC(O[C@H]4CC[C@H](CN5CCN(Cc6cc7c(c(C(F)(F)F)c6)CN(c6cccc([C@]8(Cc9nncn9C)C[C@@H](C#N)C8)c6)C7=O)CC[C@H]5C)CC4)CC3)c21 (stereo partly drawn) [Example 323, (1r,3r)-3-[3-(6-{[(5R)-5-methyl-4-{[(1r,4r)-4-({1-[1-(2,6-dioxopiperidin-3-yl)-2-oxo-3-(propan-2-yl)-2,3-dihydro-1H-1,3-benzodiazol-4-yl]piperidin-4-yl}oxy)cyclohexyl]methyl}-1,4-diazepan-1-yl]methyl}-1-oxo-4-(trifluoromethyl)-2,3-dihydro-1H-isoindol-2-yl)phenyl]-3-[(4-methyl-4H-1,2,4-triazol-3-yl)methyl]cyclobutane-1-carbonitrile] |
| < 5 nM | < 35% | > 500 nM | – | – | CC1c2nc(N3CCC(O[C@H]4CC[C@H](CN5CCN(Cc6cc7c(c(C(F)(F)F)c6)CN(c6cccc(C8(Cc9nncn9C9CC9)COC8)c6)C7=O)CC5)CC4)CC3)ccc2C(=O)N1C1CCC(=O)NC1=O (stereo partly drawn) [Example 211, 3-[7-methyl-5-oxo-2-(4-{[(1r,4r)-4-[(4-{[2-(3-{3-[(4-cyclopropyl-4H-1,2,4-triazol-3-yl)methyl]oxetan-3-yl}phenyl)-3-oxo-7-(trifluoromethyl)-2,3-dihydro-1H-isoindol-5-yl]methyl}piperazin-1-yl)methyl]cyclohexyl]oxy}piperidin-1-yl)-5H,6H,7H-pyrrolo[3,4-b]pyridin-6-yl]piperidine-2,6-dione] |
| < 5 nM | > 70% | < 5 nM | > 70% | – | Cn1cnnc1CC1(c2cccc(N3Cc4c(cc(CN5CC[C@H](CN6CCN(C[C@H]7CC[C@H](OC8CCN(c9ccc%10c(c9F)CN(C9CCC(=O)NC9=O)C%10=O)CC8)CC7)CC6)C5)cc4C(F)(F)F)C3=O)c2)COC1 (stereo partly drawn) [Example 10, 3-[4-fluoro-1-oxo-5-(4-{[(1r, 4r)-4-[(4-{[(3S)-1-{[2-(3-{3-[(4-methyl-4H-1,2,4-triazol-3-yl)methyl]oxetan-3-yl}phenyl)-3-oxo-7-(trifluoromethyl)-2,3-dihydro-1H-isoindol-5-yl]methyl}pyrrolidin-3-yl]methyl}piperazin-1-yl)methyl]cyclohexyl]oxy}piperidin-1-yl)-2,3-dihydro-1H-isoindol-2-yl]piperidine-2,6-dione] |
| 50 to 500 nM | – | > 500 nM | – | – | Cn1cnnc1CC1(c2cccc(N3Cc4c(cc(CN5CCN(C6CCN(CC7CCN(c8ccc9c(c8)C(=O)N(C8CCC(=O)NC8=O)C9=O)CC7)CC6)CC5)cc4C(F)(F)F)C3=O)c2)COC1 (stereo not drawn) [Example 104, 2-(2,6-dioxopiperidin-3-yl)-5-(4-{[4-(4-{[2-(3-{3-[(4-methyl-4H-1,2,4-triazol-3-yl)methyl]oxetan-3-yl}phenyl)-3-oxo-7-(trifluoromethyl)-2,3-dihydro-1H-isoindol-5-yl]methyl}piperazin-1-yl)piperidin-1-yl]methyl}piperidin-1-yl)-2,3-dihydro-1H-isoindole-1,3-dione] |
| < 5 nM | > 70% | < 5 nM | 35 to 70% | – | Cn1cnnc1C[C@]1(c2cccc(N3Cc4c(cc(CN5CCN(C[C@H]6CC[C@H](OC7CCN(c8ccc9c(c8F)CN(C8CCC(=O)NC8=O)C9=O)CC7)CC6)CC5)cc4C(F)(F)F)C3=O)c2)C[C@H](C#N)C1 (stereo partly drawn) [Example 167, (1r,3r)-3-[(4-methyl-4H-1,2,4-triazol-3-yl)methyl]-3-(3-{1-oxo-6-[(4-{[(1r,4r)-4-({1-[2-(2,6-dioxopiperidin-3-yl)-4-fluoro-1-oxo-2,3-dihydro-1H-isoindol-5-yl]piperidin-4-yl}oxy)cyclohexyl]methyl}piperazin-1-yl)methyl]-4-(trifluoromethyl)-2,3-dihydro-1H-isoindol-2-yl}phenyl)cyclobutane-1-carbonitrile] |
| < 5 nM | > 70% | < 5 nM | 35 to 70% | – | Cn1cnnc1[C@]1(c2cccc(N3Cc4c(cc(CN5CCC[C@H](CN6CCN(C[C@H]7CC[C@@H](OC8CCN(c9ccc%10c(c9F)CN(C9CCC(=O)NC9=O)C%10=O)CC8)CC7)CC6)C5)cc4C(F)(F)F)C3=O)c2)C[C@H](C)C1 (stereo partly drawn) [Example 159, 3-[4-fluoro-1-oxo-5-(4-{[(1r,4r)-4-[(4-{[(3S)-1-[(3-oxo-2-{3-[(1s,3r)-3-methyl-1-(4-methyl-4H-1,2,4-triazol-3-yl)cyclobutyl]phenyl}-7-(trifluoromethyl)-2,3-dihydro-1H-isoindol-5-yl)methyl]piperidin-3-yl]methyl}piperazin-1-yl)methyl]cyclohexyl]oxy}piperidin-1-yl)-2,3-dihydro-1H-isoindol-2-yl]piperidine-2,6-dione] |

— patent publication US20260184710A1, “CASITAS B-LINEAGE LYMPHOMA PROTOONCOGENE B (CBL-B) DEGRADING COMPOUNDS AND ASSOCIATED METHODS OF USE” (Arvinas Operations, Inc., priority 2022, published 2026)
